US8178506B2, “Oligomeric compounds and compositions for use in modulation of small non-coding RNAs” (Regulus Therapeutics Inc., priority 2003, dated 2012)
In the oligonucleotide strings, read from the 5' end, every base follows the letter of its sugar. An asterisk marks phosphorothioate; unmarked linkages are phosphodiester. Other units and linkages are bracketed, terminal groups are in braces. A string of capitals states the bases alone. e = 2'-O-(2-methoxyethyl) (MOE); [5mC] = 5-methylcytosine; d = 2'-deoxy (DNA)

Experiments:
BJ cells = test: Cell cycle assay in BJ cells; type: cell-based, human; conditions: 200 nM, 48 hours, relative to untreated control
Description: BJ cells were routinely cultured in MEM high glucose with 2 mM L-glutamine and Earle's BSS adjusted to contain 1.5 g/L sodium bicarbonate and supplemented with 10% fetal bovine serum, 0.1 mM non-essential amino acids and 1.0 mM sodium pyruvate (all media and supplements from Invitrogen Life Technologies, Carlsbad, Calif.). B16-F10 cells were routinely cultured in DMEM high glucose (Invitrogen Life Technologies, Carlsbad, Calif.) supplemented with 10% fetal bovine serum (Invitrogen Life Technologies, Carlsbad, Calif.). T47D cells were cultured in DMEM High glucose media (Invitrogen Life Technologies, Carlsbad, Calif.) supplemented with 10% fetal bovine serum. […] Cells were plated on collagen-coated 24-well plates (Falcon-Primaria #3047, BD Biosciences, Bedford, Mass.) at approximately 50,000 cells per well and allowed to attach to wells overnight.
In further studies, additional cell lines were treated with oligomeric compounds targeted against miRNAs to assess the effects of each oligomeric compound on cell cycling. BJ, B16, T47D, and HeLa cells were cultured and transfected as described above. […] T47Dp53 cells are T47D cells that have been transfected with and selected for maintenance of a plasmid that expresses a wildtype copy of the p53 gene (for example, pCMV-p53; Clontech, Palo Alto, Calif.), using standard laboratory procedures. BJ cells were treated with 200 nM of each oligomeric compound, and T47D, T47Dp53, HeLa, and B16 cells were treated with 150 nM of each oligomeric compound. The human foreskin fibroblast BJ cell line represents a non-cancer cell line, while HeLa, T47D, T47Dp53 cells and the mouse melanoma cell line B16-F10 represent cancerous cell lines. For comparison, oligomeric compounds ISIS 183891 (SEQ ID NO: 847) and ISIS 285717 ([…]; herein incorporated as SEQ ID NO: 857), both targeting the kinesin-like 1/Eg5 mRNA, involved in cell cycling, were used as positive controls. The random-mer ISIS 29848 was used as a negative control. Additionally, the oligomeric compounds ISIS Number 25690 ([…]; herein incorporated as SEQ ID NO: 858) and ISIS Number 25691 ([…]; herein incorporated as SEQ ID NO: 859), targeted to nucleotides 3051-3070 and 3085-3104, respectively, of the mRNA encoding the Drosha RNase III (GenBank Accession NM_013235.2, incorporated herein as SEQ ID NO: 860) were also tested. ISIS Number 25690 and ISIS Number 25691 are 5-10-52′-MOE gapmer compounds, 20 nucleotides in length, with phosphorothioate internucleoside linkages throughout the oligomeric compound. All cytidine residues are 5-methylcytidines. Transfections were performed using the methods described herein. Cells were prepared for flow cytometry 48-hours after oligonucleotide treatment. Results of these studies are shown in Table 35, where data are expressed as percentage of cells in each phase relative to the untreated control cells in that phase.

[1] = test system: bulged mir-143 target sequence; test: pGL3-bulge(×3) luciferase assay in HeLa cells; type: cell-based, human; conditions: 24 hours; for luciferase activity from pGL3-bulge(×3): HeLa, 11, 33 and 100 nM; for luciferase expression: HeLa cells
Description: An expression system based on the pGL3-Control (Promega Corp., Madison Wis.) reporter vector and comprising predicted miRNA binding sites was used in transient transfections of HeLa cells with plasmids expressing oligomeric compounds mimicking miRNAs, pre-miRNAs or pri-miRNAs in order to assess the ability of these miRNA mimics to bind and regulate the expression of the luciferase reporter. The effect of increasing the copy number of the miRNA-binding site in the target was also tested by including multiple binding sites in artificial reporter constructs. It is understood that the presence of multiple miRNA-binding sites in a target can include binding sites for different miRNAs.
The following reporter plasmids were constructed by cloning the specified fragment into the XbaI site of the pGL3-control plasmid, placing the potential miRNA-binding site in the 3′-UTR of the luciferase reporter: The reporter plasmid pGL3-bulge(×3) contains three contiguous copies of the sequence ([…]; herein incorporated as SEQ ID NO: 874) which represents a sequence complementary to the mir-143 miRNA except that it is missing 2 nucleotides such that the mir-143 miRNA is presumed to adopt a bulged structure when it hybridizes to this target sequence. The pGL3-GLO1 reporter plasmid contains a DNA fragment comprising the 3′-UTR of the GLO1 sequence; this fragment was PCR-amplified using a primer beginning at nucleotide number 621 of the GLO1 sequence (GenBank Accession NM_006708.1, SEQ ID NO: 821) and the downstream primer hybridizing to the poly A tail. The pGL3-PP2A reporter plasmid contains a DNA fragment comprising the 3′-UTR of the PP2A gene; this fragment was PCR-amplified using a primer beginning at nucleotide number 921 of the PP2A sequence (GenBank Accession NM_004156.1) and the downstream primer hybridizing to the poly A tail. The reporter plasmid pGL3-ERK5-3′-UTR(×1) contains one copy of the sequence […] (herein incorporated as SEQ ID NO: 875), found in the 3′-UTR of ERK5 and predicted by Lewis, et al. to be bound by the mir-143 miRNA, and the reporter plasmid pGL3-ERK5-3′UTR(×3) has three contiguous copies of this sequence. The reporter plasmid pGL3-ERK5-3′UTR(ext) contains one copy of the sequence […] (herein incorporated as SEQ ID NO: 876), which includes an additional ten nucleotides at either end of the mir-143 binding site in 3′-UTR of ERK5 predicted by Lewis, et al. (Lewis et al., Cell, 2003, 115, 787-798). The plasmids pGL3-ERK5-cds(×1), pGL3-ERK5-cds(×2), pGL3-ERK5-cds(×3), and pGL3-ERK5-cds(×5) contain one, two, three or five contiguous copies, respectively, of the novel mir-143 binding site ([…]; herein incorporated as SEQ ID NO: 877) we identified within the coding sequence of ERK5. The unmodified pGL3-Control luciferase reporter vector was used as a negative control, and the pGL3-mir-143 sensor reporter plasmid was used as a positive control.
HeLa cells were routinely cultured and passaged as described. In some embodiments, HeLa cells were transfected with 0.05 μg of the relevant pGL3-sensor plasmid and 0.01 μg pRL-CMV plasmid. Additionally, in some embodiments, cells were treated at various dosages (11 nM, 33 nM, and 100 nM) with the following oligomeric compound mimics: 1) ds-mir-143, or 2) ds-Control as described. In accordance with methods described in Example 12, a luciferase assay was performed 24-hours after transfection. The results, shown in Tables 40 and 41, are an average of three trials. Data are presented as percent untreated control (luciferase plasmid only, not treated with oligomeric compound) luciferase expression, normalized to pRL-CMV levels.

| Substance | % cells in cell cycle phase G1 (BJ cells) [%] | % cells in cell cycle phase G2/M (BJ cells) [%] | % cells in cell cycle phase S (BJ cells) [%] | % cells in cell cycle phase aneuploid (BJ cells) [%] | % cells in cell cycle phase subG1 (BJ cells) [%] | luciferase activity from pGL3-bulge(×3) [1] | luciferase activity from pGL3-bulge(×3) ([1]; listed as mir-143 dsRNA mimic compound) | luciferase expression ([1]; Table 40, pGL3-bulge(x3), 11 nM) [percent untreated control] | luciferase expression ([1]; Table 40, pGL3-bulge(x3), 33 nM) [percent untreated control] | luciferase expression ([1]; Table 40, pGL3-bulge(x3), 100 nM) [percent untreated control] | luciferase expression ([1]; Table 41, pGL3-bulge(x3), 11 nM) [percent untreated control] | luciferase expression ([1]; Table 41, pGL3-bulge(x3), 33 nM) [percent untreated control] | luciferase expression ([1]; Table 41, pGL3-bulge(x3), 100 nM) [percent untreated control] |
| --- | --- | --- | --- | --- | --- | --- | --- | --- | --- | --- | --- | --- | --- |
| 328403 (antisense eA*eG*eG*e[5mC]*e[5mC]*dT*dA*dT*dT*d[5mC]*d[5mC]*dT*dG*dT*dA*eG*e[5mC]*eA*eA*eA) [compound 328403] | 102 | 92 | 95 | 114 | 81 | – | – | – | – | – | – | – | – |
| ds-mir-143: double-stranded RNA of ISIS 342199 hybridized to its perfect complement ISIS 342200 (sense UGAGAUGAAGCACUGUAGCUCA; antisense UGAGCUACAGUGCUUCAUCUCA; RNA, backbone not given here) | – | – | – | – | – | dose-dependent inhibition of luciferase activity | inhibited luciferase activity from the pGL3-bulge(×3) sensor plasmid in a dose-dependent manner | 50.7 | 35.4 | 17.2 | 36.1 | 33.9 | 22.2 |
